Test results published in patent US8809350B2, “Purine and pyrimidine CDK inhibitors and their use for the treatment of autoimmune diseases” (priority 2004, dated 2014).
pIC50: −log10 of the molar value. “Also recorded” adds a separate entry of the source. Like-named read-outs stand apart in the source and are kept apart here. Values belong to the molecule of their own block, whether it stands above or below them.

Experiments:
[1] = Water intake of NZB/W F1 lupus mice; format: in vivo; set-up: Water intake: unit not given beside the values; conditions: Example 1; for Water intake: mean ± SE
[2] = test system: anti-dsDNA autoantibodies; assay: Serum anti-DNA antibodies in NZB/W F1 lupus mice; conditions: Example 1; for Serum anti-DNA antibodies: mean ± SE
[3] = Body weight of NZB/W F1 lupus mice; conditions: Example 1; for Body Weight: mean ± SE
[4] = Food intake of NZB/W F1 lupus mice; format: in vivo; conditions: Example 1; for Food Intake: mean ± SE
[5] = Serum transaminase (AST, ALT) in NZB/W F1 lupus mice; conditions: Example 1; for Serum Transaminase ALT / Serum Transaminase AST: mean ± SE
[6] = test system: tumour cell panels; assay: In-house 72 hour cytotoxicity assays on tumour cell panels; format: cell-based
[7] = test system: stimulated PBMCs; assay: T cell proliferation assay (BrdU ELISA in stimulated PBMCs); format: cell-based
Protocol: PBMCs were seeded in 96 well plates at 1×10^5 cells/well, in 50 μL per well culture medium. […] All stimulants and compounds were made up to 4× final concentration in tissue culture medium and 25 μL of each drug and stimulant was then added to wells, for a final volume of 100 μL/well. For unstimulated controls, 25 μL tissue culture medium was added to wells instead of stimulant and for untreated cells, 25 μL/well tissue culture medium containing equal volume DMSO (0.1% final) was added. Three adjacent wells were treated for each stimulation/treatment condition and the mean value calculated for analysis.
In addition, PBMCs were stimulated with ConA (Concanavalin A, Sigma C5275) at concentrations ranging from 0.5 μg/mL to 100 μg/mL to identify its stimulatory effect and optimal concentration.
Cells were labelled with BrdU for two hours prior to harvesting. Plates were then centrifuged for 10 minutes at 300 g (RT), supernatant removed from wells by pipetting and cells dried for 1 hour at 60° C. FixDenat solution was added to plates (100 μL/well) and incubated for 30 minutes, then flicked to remove and anti-BrdU-POD solution added to plates (100 μL/well) and incubated for 90 minutes.

[8] = target: CDK7/cyclin H (Homo sapiens, UniProt P50613); assay: CDK 7 and 9 assay (CTD peptide substrate); format: biochemical; conditions: in-house kinase assays; read-out: Average IC50 CDK7H
CDK7/cyclin H, sequence (P50613 whole entry): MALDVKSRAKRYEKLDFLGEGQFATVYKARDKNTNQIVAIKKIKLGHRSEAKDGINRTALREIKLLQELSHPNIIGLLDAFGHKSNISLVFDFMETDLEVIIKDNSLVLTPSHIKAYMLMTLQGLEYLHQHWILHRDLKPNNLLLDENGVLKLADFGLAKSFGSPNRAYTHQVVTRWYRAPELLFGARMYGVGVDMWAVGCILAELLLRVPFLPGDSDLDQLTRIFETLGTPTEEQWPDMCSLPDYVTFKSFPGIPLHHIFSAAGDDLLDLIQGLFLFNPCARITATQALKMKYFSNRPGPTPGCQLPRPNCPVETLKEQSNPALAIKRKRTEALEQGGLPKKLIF
CDK7/cyclin H, sequence (P51946 whole entry partner): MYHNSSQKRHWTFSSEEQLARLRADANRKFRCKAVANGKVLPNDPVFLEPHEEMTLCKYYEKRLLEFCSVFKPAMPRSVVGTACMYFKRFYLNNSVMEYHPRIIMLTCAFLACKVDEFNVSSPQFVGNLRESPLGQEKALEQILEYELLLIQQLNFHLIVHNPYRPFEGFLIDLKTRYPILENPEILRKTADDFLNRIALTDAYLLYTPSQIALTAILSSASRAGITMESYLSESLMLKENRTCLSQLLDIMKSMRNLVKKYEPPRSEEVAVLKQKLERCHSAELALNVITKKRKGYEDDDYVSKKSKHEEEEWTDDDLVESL
Protocol: (§1) Kinase activity was investigated by measuring the incorporation of radioactive phosphate from ATP into appropriate polypeptide substrates. Recombinant protein kinases and kinase complexes were produced or obtained commercially. Assays were performed using 96-well plates and appropriate assay buffers (typically 25 mM β-glycerophosphate, 20 mM MOPS, 5 mM EGTA, 1 mM DTT, 1 mM […], pH 7.4), into which were added 2-4 μg of active enzyme with appropriate substrates. The reactions were initiated by addition of Mg/ATP mix (15 mM MgCl2+100 μM ATP with 30-50 kBq per well of [γ-^32P]-ATP) and mixtures incubated as required at 30° C. Reactions were stopped on ice, followed by filtration through p81 filterplates or GF/C filterplates (Whatman Polyfiltronics, Kent, UK). After washing 3 times with 75 mM aq orthophosphoric acid, plates were dried, scintillant added and incorporated radioactivity measured in a scintillation counter (TopCount, Packard Instruments, Pangbourne, Berks, UK). Compounds for kinase assay were made up as 10 mM stocks in DMSO and diluted into 10% DMSO in assay buffer.
(§2) The reaction was stopped by placing the plate on ice for 2 min. Avidin (50 μg) was added to each well, and the plate was incubated at room temp for 30 min. The samples were transferred to a 96-well P81 filter plate, and washed (4×200 μL per well) with 75 mM phosphoric acid. Microscint 40 scintillation liquid (50 μL) was added to each well, and the amount of ^32P incorporation for each sample was measured using a Packard Topcount microplate scintillation counter.

[9] = target: CDK9/cyclin T1 (Homo sapiens, UniProt P50750); assay: CDK 7 and 9 assay (CTD peptide substrate); format: biochemical; conditions: in-house kinase assays; read-out: Average IC50 CDK9T1
CDK9/cyclin T1, sequence (P50750 whole entry): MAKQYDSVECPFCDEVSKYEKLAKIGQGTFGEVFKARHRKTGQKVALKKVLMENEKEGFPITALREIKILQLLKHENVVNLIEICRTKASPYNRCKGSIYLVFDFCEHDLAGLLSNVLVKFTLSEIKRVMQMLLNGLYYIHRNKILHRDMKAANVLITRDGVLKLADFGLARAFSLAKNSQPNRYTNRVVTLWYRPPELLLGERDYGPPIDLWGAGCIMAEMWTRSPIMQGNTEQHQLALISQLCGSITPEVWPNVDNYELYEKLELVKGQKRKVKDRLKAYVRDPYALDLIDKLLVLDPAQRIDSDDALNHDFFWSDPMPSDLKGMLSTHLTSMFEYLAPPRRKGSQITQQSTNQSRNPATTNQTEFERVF
CDK9/cyclin T1, sequence (O60563 whole entry partner): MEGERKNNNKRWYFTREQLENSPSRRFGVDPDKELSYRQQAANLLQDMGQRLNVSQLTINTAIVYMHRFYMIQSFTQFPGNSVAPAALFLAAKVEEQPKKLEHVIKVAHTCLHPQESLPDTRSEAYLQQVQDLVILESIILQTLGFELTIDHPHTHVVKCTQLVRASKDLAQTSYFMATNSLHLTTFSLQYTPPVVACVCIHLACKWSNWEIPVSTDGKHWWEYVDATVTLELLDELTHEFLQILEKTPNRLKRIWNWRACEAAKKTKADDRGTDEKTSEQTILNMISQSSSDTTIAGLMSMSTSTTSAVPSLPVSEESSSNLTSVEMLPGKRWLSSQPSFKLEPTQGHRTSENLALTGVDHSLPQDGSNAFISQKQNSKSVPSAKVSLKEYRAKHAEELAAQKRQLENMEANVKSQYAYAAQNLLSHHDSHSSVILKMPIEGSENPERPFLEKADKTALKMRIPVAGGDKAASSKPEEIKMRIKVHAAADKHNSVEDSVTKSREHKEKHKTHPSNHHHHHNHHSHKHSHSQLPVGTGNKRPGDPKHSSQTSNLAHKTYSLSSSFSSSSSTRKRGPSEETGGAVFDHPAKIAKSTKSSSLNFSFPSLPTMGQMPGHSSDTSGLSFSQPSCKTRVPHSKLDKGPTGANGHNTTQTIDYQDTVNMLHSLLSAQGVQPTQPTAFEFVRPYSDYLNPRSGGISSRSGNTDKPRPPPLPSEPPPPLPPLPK
Protocol: as §1, §2

[10] = target: CDK6D3 (Homo sapiens, UniProt Q00534); assay: In-house kinase assay (32P incorporation); format: biochemical; conditions: in-house kinase assays
CDK6D3, sequence (Q00534 whole entry): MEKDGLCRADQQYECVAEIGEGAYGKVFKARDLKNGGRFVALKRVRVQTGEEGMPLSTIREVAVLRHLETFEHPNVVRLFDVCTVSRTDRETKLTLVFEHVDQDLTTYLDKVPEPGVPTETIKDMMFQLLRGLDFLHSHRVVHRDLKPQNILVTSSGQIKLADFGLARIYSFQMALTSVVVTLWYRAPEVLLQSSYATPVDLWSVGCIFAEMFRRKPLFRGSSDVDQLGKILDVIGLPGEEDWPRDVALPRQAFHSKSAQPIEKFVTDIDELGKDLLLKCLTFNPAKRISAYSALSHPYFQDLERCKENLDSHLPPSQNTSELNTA
CDK6D3, sequence (P30281 whole entry partner): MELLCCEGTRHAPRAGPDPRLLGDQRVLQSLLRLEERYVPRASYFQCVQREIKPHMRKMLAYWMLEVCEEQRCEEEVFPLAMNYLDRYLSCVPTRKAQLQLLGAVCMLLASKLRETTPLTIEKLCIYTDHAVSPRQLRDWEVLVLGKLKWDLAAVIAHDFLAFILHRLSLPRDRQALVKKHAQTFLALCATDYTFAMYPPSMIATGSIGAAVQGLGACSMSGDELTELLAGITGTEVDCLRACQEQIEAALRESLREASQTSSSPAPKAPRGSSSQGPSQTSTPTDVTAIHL
Protocol: as §1

[11] = target: CDK1B (Homo sapiens, UniProt P06493); assay: In-house kinase assay (32P incorporation); format: biochemical; conditions: in-house kinase assays
CDK1B, sequence (P06493 whole entry): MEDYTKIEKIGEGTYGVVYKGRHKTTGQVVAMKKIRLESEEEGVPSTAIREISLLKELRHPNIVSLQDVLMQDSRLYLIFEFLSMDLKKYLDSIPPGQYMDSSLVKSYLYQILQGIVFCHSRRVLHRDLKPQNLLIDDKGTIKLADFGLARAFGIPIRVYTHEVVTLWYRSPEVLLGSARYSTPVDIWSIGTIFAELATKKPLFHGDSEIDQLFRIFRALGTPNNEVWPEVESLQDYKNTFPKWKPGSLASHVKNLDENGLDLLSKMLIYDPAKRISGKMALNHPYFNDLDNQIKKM
CDK1B, sequence (P14635 whole entry partner): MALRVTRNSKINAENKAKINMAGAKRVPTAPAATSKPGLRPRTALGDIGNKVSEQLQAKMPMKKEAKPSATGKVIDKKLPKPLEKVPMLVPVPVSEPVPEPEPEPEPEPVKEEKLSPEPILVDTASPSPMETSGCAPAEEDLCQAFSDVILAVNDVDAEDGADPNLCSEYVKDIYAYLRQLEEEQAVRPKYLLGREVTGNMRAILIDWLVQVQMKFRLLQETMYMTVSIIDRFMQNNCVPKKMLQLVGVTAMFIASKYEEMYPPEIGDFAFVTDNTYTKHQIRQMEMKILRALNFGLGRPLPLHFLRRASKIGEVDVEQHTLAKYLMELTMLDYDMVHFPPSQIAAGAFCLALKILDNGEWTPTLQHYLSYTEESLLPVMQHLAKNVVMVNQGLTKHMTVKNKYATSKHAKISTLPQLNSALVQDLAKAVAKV
Protocol: as §1

[12] = target: AurB (Homo sapiens, UniProt Q96GD4); assay: In-house kinase assay (32P incorporation); format: biochemical; conditions: in-house kinase assays
AurB, sequence (Q96GD4 whole entry): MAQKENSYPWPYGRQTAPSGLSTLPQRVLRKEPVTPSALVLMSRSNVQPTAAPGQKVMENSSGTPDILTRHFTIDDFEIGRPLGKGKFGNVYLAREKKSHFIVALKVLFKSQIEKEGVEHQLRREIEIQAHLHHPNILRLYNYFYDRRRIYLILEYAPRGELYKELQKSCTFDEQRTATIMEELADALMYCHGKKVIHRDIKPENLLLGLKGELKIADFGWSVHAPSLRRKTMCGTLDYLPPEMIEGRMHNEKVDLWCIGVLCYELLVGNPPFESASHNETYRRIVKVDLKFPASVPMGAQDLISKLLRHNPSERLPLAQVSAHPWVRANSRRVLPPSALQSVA
Protocol: as §1

[13] = target: T1, AurA (Homo sapiens, UniProt O14965); assay: In-house kinase assay (32P incorporation); format: biochemical; conditions: in-house kinase assays
T1 sequence (O14965 1-403): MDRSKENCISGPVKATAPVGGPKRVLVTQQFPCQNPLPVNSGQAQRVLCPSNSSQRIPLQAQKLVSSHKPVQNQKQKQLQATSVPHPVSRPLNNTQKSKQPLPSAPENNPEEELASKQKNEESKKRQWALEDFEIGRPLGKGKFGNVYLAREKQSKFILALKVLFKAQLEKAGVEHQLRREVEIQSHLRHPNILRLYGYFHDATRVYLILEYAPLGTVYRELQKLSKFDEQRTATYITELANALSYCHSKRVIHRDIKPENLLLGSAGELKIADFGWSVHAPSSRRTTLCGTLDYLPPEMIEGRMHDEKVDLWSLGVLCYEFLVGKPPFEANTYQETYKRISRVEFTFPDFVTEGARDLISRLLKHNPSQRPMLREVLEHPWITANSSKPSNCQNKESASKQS
Protocol: as §1

[14] = target: CDK2E (Homo sapiens, UniProt P24941); assay: In-house kinase assay (32P incorporation); format: biochemical; conditions: in-house kinase assays
Protocol: as §1

[15] = target: CDK4D1 (Homo sapiens, UniProt P11802); assay: In-house kinase assay (32P incorporation); format: biochemical; conditions: in-house kinase assays
CDK4D1, sequence (P11802 whole entry): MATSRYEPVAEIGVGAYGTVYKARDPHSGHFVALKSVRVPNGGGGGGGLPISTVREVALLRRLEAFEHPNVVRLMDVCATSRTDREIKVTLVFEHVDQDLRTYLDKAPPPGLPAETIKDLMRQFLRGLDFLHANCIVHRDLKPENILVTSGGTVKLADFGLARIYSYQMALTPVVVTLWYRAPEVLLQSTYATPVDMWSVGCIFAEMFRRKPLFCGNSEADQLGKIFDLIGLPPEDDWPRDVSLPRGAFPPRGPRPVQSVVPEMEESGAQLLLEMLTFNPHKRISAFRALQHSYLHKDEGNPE
CDK4D1, sequence (P24385 whole entry partner): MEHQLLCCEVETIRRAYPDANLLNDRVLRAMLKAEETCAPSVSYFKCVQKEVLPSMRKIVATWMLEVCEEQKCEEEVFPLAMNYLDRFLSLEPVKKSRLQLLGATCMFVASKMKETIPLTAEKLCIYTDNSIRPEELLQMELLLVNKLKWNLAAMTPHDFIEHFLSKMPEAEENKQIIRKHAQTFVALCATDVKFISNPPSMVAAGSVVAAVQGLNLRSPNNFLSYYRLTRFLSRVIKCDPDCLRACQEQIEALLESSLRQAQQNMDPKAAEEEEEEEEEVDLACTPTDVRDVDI
Protocol: as §1

[16] = 100 mg/kg daily by gavage from 2 months (preventive), age 2 months
[17] = 100 mg/kg daily by gavage from 2 months (preventive), age 2.5 months
[18] = 100 mg/kg daily by gavage from 2 months (preventive), age 3 months
[19] = 100 mg/kg daily by gavage from 2 months (preventive), age 3.5 months
[20] = 100 mg/kg daily by gavage from 2 months (preventive), age 4 months
[21] = 100 mg/kg daily by gavage from 2 months (preventive), age 4.5 months
[22] = 100 mg/kg daily by gavage from 2 months (preventive), age 5 months
[23] = 200 mg/kg daily by gavage from 2 months (preventive), age 2 months
[24] = 200 mg/kg daily by gavage from 2 months (preventive), age 2.5 months
[25] = 200 mg/kg daily by gavage from 2 months (preventive), age 3 months
[26] = 200 mg/kg daily by gavage from 2 months (preventive), age 3.5 months
[27] = 200 mg/kg daily by gavage from 2 months (preventive), age 5 months
[28] = every two weeks from 2 to 5 months
[29] = 100 mg/kg therapeutic (from 5 months)

Compound: CC[C@H](CO)Nc1nc(NCc2ccccc2)c2ncn(C(C)C)c2n1 [CYC202, 2-(1-R-hydroxymethylpropylamino)-6-benzylamino-9-isopropylpurine]
Water intake [1, 16]: 6.64 ± 0.29
Water intake [1, 17]: 5.14 ± 0.40
Water intake [1, 18]: 4.21 ± 0.28
Water intake [1, 19]: 5.00 ± 0.28
Water intake [1, 20]: 5.57 ± 0.20
Water intake [1, 21]: 4.43 ± 0.20
Water intake [1, 22]: 3.93 ± 0.22
Water intake [1, 23]: 5.31 ± 0.26
Water intake [1, 24]: 4.77 ± 0.20
Water intake [1, 25]: 4.92 ± 0.18
Water intake [1, 26]: 5.08 ± 0.21
Water intake [1, 27]: 4.23 ± 0.28
Water intake versus vehicle [1, 28]: comparable
Serum anti-DNA antibodies ([2]; 100 mg/kg preventive, 5 months): 4.04 ± 0.76 U/ml
Serum anti-DNA antibodies ([2]; 100 mg/kg preventive, 8 months): 76.55 ± 21.40 U/ml
Serum anti-DNA antibodies ([2]; 200 mg/kg preventive, 5 months): 24.20 ± 6.52 U/ml
Serum anti-DNA antibodies ([2]; 200 mg/kg preventive, 8 months): 73.39 ± 21.13 U/ml
Anti-DNA antibody levels versus vehicle ([2]; treated from 2 months, both doses, at 5 or 8 months of age): significantly lower than vehicle
Body Weight [3, 16]: 27.93 ± 0.62
Body Weight [3, 18]: 27.86 ± 0.52
Body Weight [3, 20]: 28.07 ± 0.57
Body Weight [3, 22]: 28.64 ± 0.57
Body Weight ([3]; 100 mg/kg daily by gavage from 2 months (preventive), age 6 months): 30.23 ± 0.67
Body Weight ([3]; 100 mg/kg daily by gavage from 2 months (preventive), age 7 months): 31.50 ± 0.87
Body Weight ([3]; 100 mg/kg daily by gavage from 2 months (preventive), age 8 months): 30.78 ± 0.91
Body Weight ([3]; 100 mg/kg daily by gavage from 5 months (therapeutic), age 2 months): 26.71 ± 0.74
Body Weight ([3]; 100 mg/kg daily by gavage from 5 months (therapeutic), age 3 months): 28.14 ± 0.69
Body Weight ([3]; 100 mg/kg daily by gavage from 5 months (therapeutic), age 4 months): 29.43 ± 1.01
Body Weight ([3]; 100 mg/kg daily by gavage from 5 months (therapeutic), age 5 months): 29.71 ± 0.82
Body Weight ([3]; 100 mg/kg daily by gavage from 5 months (therapeutic), age 6 months): 31.45 ± 0.96
Body Weight ([3]; 100 mg/kg daily by gavage from 5 months (therapeutic), age 7 months): 30.80 ± 1.69
Body Weight ([3]; 100 mg/kg daily by gavage from 5 months (therapeutic), age 8 months): 29.80 ± 1.46
Body Weight [3, 23]: 27.85 ± 0.72
Body Weight [3, 25]: 28.00 ± 0.68
Body Weight [3, 27]: 28.92 ± 0.35
Body Weight ([3]; 200 mg/kg daily by gavage from 2 months (preventive), age 6 months): 31.58 ± 0.43
Body Weight ([3]; 200 mg/kg daily by gavage from 2 months (preventive), age 7 months): 30.82 ± 0.35
Body Weight ([3]; 200 mg/kg daily by gavage from 2 months (preventive), age 8 months): 31.60 ± 0.52
Body weight versus other experimental groups ([3]; all CYC202 groups): No difference
Food Intake [4, 16]: 3.69 ± 0.33
Food Intake [4, 17]: 3.77 ± 0.23
Food Intake [4, 18]: 3.92 ± 0.18
Food Intake [4, 19]: 4.08 ± 0.18
Food Intake [4, 20]: 3.92 ± 0.26
Food Intake [4, 21]: 3.85 ± 0.30
Food Intake [4, 22]: 3.85 ± 0.22
Food Intake [4, 23]: 3.54 ± 0.29
Food Intake [4, 24]: 4.08 ± 0.08
Food Intake [4, 25]: 4.00 ± 0.11
Food Intake [4, 26]: 4.08 ± 0.21
Food Intake ([4]; 200 mg/kg daily by gavage from 2 months (preventive), age 4 months): 4.00 ± 0.16
Food Intake ([4]; 200 mg/kg daily by gavage from 2 months (preventive), age 4.5 months): 4.00 ± 0.18
Food Intake [4, 27]: 3.92 ± 0.29
Food intake versus vehicle [4, 28]: comparable
Serum Transaminase ALT [5, 29]: 36.00 ± 2.45 IU/L
Serum Transaminase AST [5, 29]: 74.40 ± 1.72 IU/L
Serum transaminase levels (ALT and AST) ([5]; 200 mg/kg from 2 months or 100 mg/kg from 5 months, similar to control mice): not modified by treatments
Serum Transaminase ALT ([5]; 200 mg/kg preventive): 36.44 ± 4.04 IU/L
Serum Transaminase AST ([5]; 200 mg/kg preventive): 62.89 ± 4.70 IU/L

Compound: Cc1nc(C)c(-c2ccnc(Nc3ccc(N(C)C)cc3)n2)s1 [Compound 4]
pIC50 ([6]; PBMC, read-out: IC50 Used): 6.00
BrdU incorporation ([7]; Example 3, PMA/I stimulated PBMCs, all concentrations): higher than in PHA stimulated cells
BrdU incorporation ([7]; Example 4, PHA or ConA stimulated PBMCs, 0.25×IC50 to 4×IC50, 48 and 72 hours): BrdU signals do not reduce to background levels; also recorded: fails to achieve complete inhibition of proliferation activity
pIC50 [8]: 5.07
pIC50 [9]: 5.73
pIC50 [10]: 5.98
pIC50 [11]: 5.13
pIC50 [12]: 7.52
pIC50 [13]: 7.42

pIC50 [8]: 5.88
pIC50 [9]: 6.47
pIC50 [14]: 6.90
pIC50 [10]: 5.04
pIC50 [15]: 4.71
pIC50 [11]: 5.12
pIC50 [12]: < 5.00
pIC50 [13]: < 5.00
Compound: CC[C@H](Nc1nc(NCc2cccnc2)c2ncn(C(C)C)c2n1)C(C)(C)O [Compound 6]
pIC50 ([6]; 72 h, read-out: IC50 Average): 4.98
pIC50 ([6]; rounded IC50 value used for ease of calculation in PBMC assays, read-out: IC50 Used): 5.00
